Assay results: publication PMC8403366, “Functional significance of gain-of-function H19 lncRNA in skeletal muscle differentiation and anti-obesity effects” (Genome Medicine, 2021)

How the values were obtained:
Assay type in all cases: in vivo, mouse
C57BL/6 J mice on a HFD = assay: HFD-induced obesity model: body, muscle and fat weights, body composition; details: HFD-fed male mice; for body weight: n = 10
Protocol: (§1) To determine the effects of H19-Rgof with a skeletal muscle enrichment peptide agrin (AGR-H19-Rgof) on WT C57BL/6 J or Lep^Ob/Ob mice, AGR-tagged oligonucleotides were used. The synthesis and sequence information of AGR-tagged RNA oligonucleotides are described in “Synthesis of H19-Rgof mimics, AGR-H19-Rgof mimics, and Pharmacokinetics (PK) studies.” AGR-Scr (conjugated to scramble oligonucleotides), H19-Rgof, or AGR-H19-Rgof mimics were injected at a dose of 1 mg/kg intraperitoneally into 3-week-old male and female mice. For AGR-H19-Rgof treatment in HFD (Cat # D12492, Research Diets, Inc.)-fed mice, male C57BL/6 J mice were fed with a HFD starting at 6 weeks of age. The AGR-H19-Rgof and AGR-Scr mimics were injected at a dose of 0.5 or 1 mg/kg intraperitoneally every other day starting 2 weeks after the initiation of HFD feeding. Body weight was measured weekly. The general health condition, grooming, and behavior of all animals were monitored daily, and injection sites were checked for signs of redness or edema.
(§2) Unless otherwise indicated, mice were fasted for 4–6 h, anesthetized with isoflurane, and sacrificed by heart puncture. Tissues were dissected, weighed, and either dipped in liquid nitrogen or fixed for immunohistochemistry analysis. Individual muscle was dissected on one side of the body and weighed. Adipose tissues including white adipose tissue (WAT), visceral adipose tissue (VAT), and brown adipose tissue (BAT) were collected and weighed.
(§3) Whole-body composition parameters were measured in male and female mice fed with either chow or HFD by Faxitron Specimen Radiography System (Faxitron X-Ray Corp.) to precisely measure total body fat and lean mass. Mice were housed in the Oxymax/CLAMS metabolic cage system (Columbus Instruments) for 4 days with ad libitum access to food and water. Volume of oxygen uptake (VO2) and exhaled carbon dioxide (VCO2), respiratory exchange ratio (RER), and activity were measured using the Oxymax system. RER is determined by dividing VCO2 produced by VO2 consumed.

WT C57BL/6 J mice = assay: Muscle and fat weights and body composition of treated WT mice; details: 1 mg/kg i.p. every 3 days, 12 weeks
Protocol: as §1, §2, §3

C57BL/6 J mice [1] = assay: Tissue distribution / pharmacokinetics of biotinylated mimics; details: 10 mg/kg i.p.; streptavidin immunohistochemistry, 24 hours post administration; n = 5
Protocol: The H19-Rgof mimics and AGR-H19-Rgof mimics were synthesized by Bio-synthesis Inc. The linker that connected the peptide and RNA oligonucleotides was succinimidyl 4-(N-maleimidomethyl) cyclohexane-1-carboxylate (SMCC). RNA mimics sequences are listed in the Additional file 1: Table S1. To characterize the pharmacokinetics of H19-Rgof and AGR-H19-Rgof mimics, the biotinylated H19-Rgof and AGR-H19-Rgof mimics (10 mg/kg) were intraperitoneally injected into C57BL/6 J mice. The liver, kidneys, lungs, heart, and skeletal muscles of the animals were collected 3, 12, 24, 48, or 72 h post-injection (n = 5 animal per time point). Tissues were subjected to immunohistochemistry using streptavidin alkaline phosphatase conjugates and small RNA isolation in accordance with the manufacturer’s instructions using miRCURY™ RNA Isolation Kits (Qiagen). Immunostained tissue slides were obtained with a Vectra Polaris Multispectral Imaging scanner (PerkinElmer). The quantification of immunohistochemistry staining density was performed by Image-pro plus 6.0 (Media Cybernetics) and calculated based on the average staining intensity and the percentage of positively stained cells. Pharmacokinetic parameters were determined by nonlinear regression analysis.

C57BL/6 J mice [2] = assay: Skeletal muscle immunostaining, fiber number/area, fiber typing, SDH staining
Protocol: Skeletal muscles were collected and fixed in 10% Neutral Buffered Formalin at 4 °C for 1 h, followed by 10% sucrose/PBS overnight and then 18% sucrose/PBS overnight at 4 °C before being frozen embedded and sectioned. For immunostaining, frozen cross-sections of muscle were fixed in 4% paraformaldehyde for 5 min, washed, permeabilized with 0.5% Triton X-100, and stained with indicated primary antibodies. After extensive washing in PBS-0.05% Triton X-100, the secondary antibody was added and incubated for 1 h. After extensive washing in PBS-0.05% Triton X-100, nuclei were stained with Vectashield Antifade Mounting Medium with DAPI (Vector Laboratories). Images of laminin-stained fibers were taken by Zeiss microscope. Muscle cross-sectional area and fiber numbers were quantified by ImageJ. Immunostained tissue slides were obtained with Vectra Polaris Multispectral Imaging scanner (PerkinElmer). The quantification of IF staining density was performed by Image-pro plus 6.0 (Media Cybernetics) and calculated based on the average staining intensity and the percentage of positively stained cells. To quantify myotube fusion, fusion index was calculated by dividing the number of nuclei in MHC-positive myotubes with ≥ 3 nuclei by the total number of nuclei analyzed in a field.
Muscle fiber-type immunofluorescence staining was performed with antibodies to MHC type I (supernatant, DSHB, BA-D5), MHC type IIa (supernatant, DSHB, SC-71), and MHC type IIb (supernatant, DSHB, BF-F3), as previously described. Type IIx fibers are not recognized by these antibodies and appeared black. Succinic dehydrogenase (SDH) staining was used to assess metabolic fiber type switch. Frozen cross-sections of muscle were allowed to equilibrate to room temperature and then incubated in a solution containing Nitroblue tetrazolium and sodium succinate for 20 min. Sections were washed 3 times in PBS, dehydrated in ethanol, and mounted with an aqueous mounting medium (Vector Laboratories). The antibodies used are listed in the Additional file 3: Table S3.

[3] = HFD-fed mice, staining intensity, n = 8
[4] = WT mice, 1 mg/kg i.p. every 3 days, 12 weeks, immunofluorescence, n = 8
[5] = WT mice, MHC isoform immunolabeling, vs AGR-Scr, n = 5

Question: “N-terminal-ELTNEIPAELTNEIPA-Linker-5'-[2’-F-C][2’-F-U][2’-F-C][2’-F-U][2’-F-U][2’-F-U][2’-F-A][2’-F-U][2’-F-U][2’-F-U][2’-F-C][2’-F-U][2’-F-G][2’-F-A][2’-F-G][2’-F-C][2’-F-U][2’-F-U][2’-F-U][2’-F-C][2’-F-C][2’-F-U][2’-F-A][2’-F-U][2’-F-C][2’-F-U][2’-F-U][2’-F-U][2’-F-C][2’-F-C]-3' [AGR-H19-Rgof]” was tested. Which body weight (C57BL/6 J mice on a HFD; 0.5 mg/kg i.p. every other day) did it give?
Answer: significantly reduced

Question: And the body weight (C57BL/6 J mice on a HFD; 1 mg/kg i.p. every other day)?
Answer: significantly reduced

Question: And the “fat percentage (body composition)” value (C57BL/6 J mice on a HFD; vs AGR-Scr, n = 5)?
Answer: reduced

Question: And the “fat weight (body composition)” value (C57BL/6 J mice on a HFD; vs AGR-Scr, n = 5)?
Answer: reduced

Question: And the “lean weight (body composition)” value (C57BL/6 J mice on a HFD; vs AGR-Scr, n = 5)?
Answer: increased

Question: What about the fat mass (C57BL/6 J mice on a HFD; vs AGR-Scr, n = 10, 9) of the same substance?
Answer: reduced

Question: What about the skeletal muscle mass (C57BL/6 J mice on a HFD; vs AGR-Scr, n = 10, 9) of the same substance?
Answer: increased

Question: What about the “body weight (body composition analysis)” value (WT C57BL/6 J mice; vs AGR-Scr) of the same substance?
Answer: increased body weight

Question: What about the “fat percentage (body composition analysis)” value (WT C57BL/6 J mice; vs AGR-Scr) of the same substance?
Answer: reduced

Question: And the “fat weight (body composition analysis)” value (WT C57BL/6 J mice; vs AGR-Scr)?
Answer: reduced

Question: And the “lean weight (body composition analysis)” value (WT C57BL/6 J mice; vs AGR-Scr)?
Answer: increased

Question: And the “fat weight (BAT, WAT, VAT)” value (WT C57BL/6 J mice; vs AGR-Scr or H19-Rgof)?
Answer: reduced fat weight

Question: And the muscle weight (WT C57BL/6 J mice; vs AGR-Scr or H19-Rgof)?
Answer: increased muscle weight

Question: What about the “accumulation in liver, kidneys and lungs” value (C57BL/6 J mice [1]) of the same substance?
Answer: minimal accumulation

Question: What about the “biotin-labeled mimic detected in skeletal muscle” value (C57BL/6 J mice [1]) of the same substance?
Answer: substantial proportion

Question: What about the “skeletal muscle distribution compared to unlabeled H19-Rgof” value (C57BL/6 J mice [1]) of the same substance?
Answer: significantly enhanced

Question: What about the “fiber area in TA” value (C57BL/6 J mice [2]; HFD-fed mice, n = 10, 9) of the same substance?
Answer: increased

Question: What about the “Ub-DMD in TA” value (C57BL/6 J mice [2]; [3]) of the same substance?
Answer: reduced

Question: What about the “expression of DMD in TA” value (C57BL/6 J mice [2]; [3]) of the same substance?
Answer: increased

Question: What about the “DMD protein status in TA” value (C57BL/6 J mice [2]; [4]) of the same substance?
Answer: increased DMD protein status

Question: What about the “DRP2 protein status in TA” value (C57BL/6 J mice [2]; [4]) of the same substance?
Answer: improved protein status

Question: And the “nNOS protein status in TA” value (C57BL/6 J mice [2]; [4])?
Answer: improved protein status

Question: And the “β-dystroglycan protein status in TA” value (C57BL/6 J mice [2]; [4])?
Answer: improved protein status

Question: And the “fast glycolytic fiber type IIb in QUAD, SOL and TA” value (C57BL/6 J mice [2]; [5])?
Answer: substantial shift toward

Question: And the “percentage of fast oxidative fiber type IIa in QUAD, SOL and TA” value (C57BL/6 J mice [2]; [5])?
Answer: reduced percentage

Question: And the “SDH+ fibers in QUAD” value (C57BL/6 J mice [2]; WT mice, vs AGR-Scr, n = 5)?
Answer: reduced SDH+

Question: And the “SDH+ in TA and GAS” value (C57BL/6 J mice [2]; WT mice, vs AGR-Scr, n = 5)?
Answer: minimally altered

Question: What about the “SDH+ muscle staining in SOL and EDL” value (C57BL/6 J mice [2]; WT mice, vs AGR-Scr, n = 5) of the same substance?
Answer: increased SDH+

Question: What about the “type I fibers in SOL” value (C57BL/6 J mice [2]; WT mice, vs AGR-Scr, n = 5) of the same substance?
Answer: marginally reduced

Question: And the “type II fibers in SOL” value (C57BL/6 J mice [2]; WT mice, vs AGR-Scr, n = 5)?
Answer: increased

Question: And the “utrophin protein status in the quadriceps (QUAD)” value (C57BL/6 J mice [2]; WT mice, vs AGR-Scr, n = 8)?
Answer: increased

Question: What about the muscle fiber area (C57BL/6 J mice [2]; WT mice, vs Scr mimics) of the same substance?
Answer: increased

Question: And the “number of muscle fibers (SOL, EDL, TA, GAS, QUAD)” value (C57BL/6 J mice [2]; WT mice, vs Scr mimics, n = 5)?
Answer: increased number
